{"source": "patent US11083777B2", "about": "“Hemichannel extracellular-domain specific agents for treating ischemia-reperfusion injury” (The Feinstein Institutes for Medical Research, priority 2015, dated 2021)", "key": {"C57BL/6 mice": {"tested_on": "C57BL/6 mice", "assay": "Hepatic ischemia/reperfusion injury, serum ALT and AST", "type": "in vivo", "conditions": "10.0 mg/kg BW via internal jugular vein at beginning of reperfusion; 24 h", "protocol": "FIG. 10. Intravenous administration of Cx43 peptide antagonist conferred protection against hepatic ischemia/reperfusion (I/R) injury. Male C57BL/6 mice (20-25 g) were subjected to hepatic ischemia/reperfusion by temporally clamping the hepatic artery and portal vein for 60 minutes, which typically produced ischemia in 70% of the liver. At the beginning of the reperfusion, 0.2 ml saline, P5 (ENVCYD; 10.0 mg/kg BW) or P5A (ENVSYD (SEQ ID NO:14); 10.0 mg/kg BW) was injected via the internal jugular vein. At 24 h after the onset of ischemia, animals were euthanized to harvest blood to measure serum levels of hepatic injury markers such as alanine aminotransferase (ALT) and aspartate aminotransferase (AST) using commercial kits.\nIntravenous administration of Cx43 peptide antagonist conferred protection against hepatic ischemia/reperfusion (I/R) injury. Male C57BL/6 mice (20-25 g) were subjected to hepatic ischemia/reperfusion by temporally clamping the hepatic artery and portal vein for 60 minutes, which typically produced ischemia in 70% of the liver. At the beginning of the reperfusion, 0.2 ml saline, P5 (ENVCYD, 10.0 mg/kg BW) or P5A (ENVSYD (SEQ ID NO:14), 10.0 mg/kg) was injected via the internal jugular vein. […]"}, "[1]": {"tested_on": "connexin 43-gated hemichannel activities", "assay": "Lucifer Yellow dye uptake in LPS-stimulated RAW 264.7 cells", "type": "cell-based", "conditions": "LPS 16 h, LY 1 mg/ml 15 min", "protocol": "FIG. 8. […] The Lucifer Yellow dye uptake was used to measure the connexin 43-gated hemichannel activities. […] Subsequently, cell cultures were incubated with Lucifer Yellow (LY, 1 mg/ml) for 15 min, and fixed with 2% paraformaldehyde following three extensive washes with 1× PBS. The number of cells with diffused fluorescent signals was counted under a fluorescence microscope. The cells containing punctuate fluorescent signals were excluded, as the punctuate signals likely resulted from phagocytosis (rather than passive diffusion through Cx43 hemichannels) of the LY dye.\nThe Lucifer Yellow dye uptake was used to measure the connexin 43-gated hemichannel activities. […] Subsequently, cell cultures were incubated with Lucifer Yellow (LY, 1 mg/ml) for 15 min, and fixed with 2% paraformaldehyde following three extensive washes with 1×PBS. The number of cells with diffused fluorescent signals was counted under a fluorescence microscope. The cells containing punctuate fluorescent signals were excluded, as the punctuate signals likely resulted from phagocytosis (rather than passive diffusion through Cx43 hemichannels) of the LY dye. […] Animal survival was assessed for up to two weeks, and the Kaplan-Meier method was used to compare the differences in mortality rates between groups. […]"}, "[2]": {"tested_on": "Primary peritoneal macrophages", "conditions": "reference 49; cited from earlier work"}, "Cx43 gap junctions": {"target": "Cx43 gap junctions (Homo sapiens, UniProt P17302)", "sequence (P17302 whole entry)": "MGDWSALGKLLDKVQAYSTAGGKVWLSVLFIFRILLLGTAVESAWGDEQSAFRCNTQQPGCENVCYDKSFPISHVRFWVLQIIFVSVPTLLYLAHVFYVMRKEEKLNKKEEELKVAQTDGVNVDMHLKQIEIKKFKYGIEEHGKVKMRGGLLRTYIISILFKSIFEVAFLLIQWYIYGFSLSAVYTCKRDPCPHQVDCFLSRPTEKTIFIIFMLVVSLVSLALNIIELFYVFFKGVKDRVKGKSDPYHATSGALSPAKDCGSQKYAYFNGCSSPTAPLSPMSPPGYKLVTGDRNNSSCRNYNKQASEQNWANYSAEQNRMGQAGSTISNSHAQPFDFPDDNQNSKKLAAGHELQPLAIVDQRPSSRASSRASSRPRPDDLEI", "conditions": "cited from earlier work"}, "Panx1 hemichannels": {"target": "Panx1 hemichannels (Homo sapiens, UniProt Q96RD7)", "sequence (Q96RD7 whole entry)": "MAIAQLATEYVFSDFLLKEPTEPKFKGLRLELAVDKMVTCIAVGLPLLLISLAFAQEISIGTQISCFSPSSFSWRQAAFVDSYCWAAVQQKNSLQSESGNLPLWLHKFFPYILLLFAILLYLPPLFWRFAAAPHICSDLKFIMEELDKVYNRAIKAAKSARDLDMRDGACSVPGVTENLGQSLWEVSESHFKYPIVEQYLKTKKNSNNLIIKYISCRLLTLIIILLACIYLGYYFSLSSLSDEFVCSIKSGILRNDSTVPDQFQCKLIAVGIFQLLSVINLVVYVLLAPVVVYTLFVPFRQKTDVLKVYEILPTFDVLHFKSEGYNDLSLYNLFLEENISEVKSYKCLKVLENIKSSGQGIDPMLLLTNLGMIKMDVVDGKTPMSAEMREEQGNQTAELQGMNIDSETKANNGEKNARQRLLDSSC", "conditions": "cited from earlier work"}, "PKR": {"tested_on": "PKR", "assay": "LPS-induced PKR expression and phosphorylation (Western blotting)", "type": "cell-based, murine", "conditions": "crude LPS, 16 h, primary macrophages"}, "[3]": {"tested_on": "Primary peritoneal macrophages", "assay": "LPS-induced HMGB1 secretion in primary peritoneal macrophages (Western blotting)", "type": "cell-based, murine", "conditions": "crude LPS, 16 h, extracellular HMGB1", "protocol": "FIG. 2A-2C. […] AU, arbitrary units. *, P<0.05 versus “+LPS alone.”\nPrimary murine macrophages and human monocytes were employed to investigate the mechanisms underlying the regulation of HMGB1 secretion by various inflammatory stimuli. Primary peritoneal macrophages were isolated from Balb/C mice (male, 7-8 weeks, 20-25 grams) at 2-3 days after intraperitoneal injection of 2 ml thioglycollate broth (4%, Difco, Detroit, Mich.) as previously described (23,78). Human peripheral blood mononuclear cells (HuPBMCs) were isolated from human blood purchased from the New York (Long Island) Blood Bank (Melville, N.Y.) by density gradient centrifugation through Ficoll (Ficoll-Paque PLUS, Pharmacia, Piscataway, N.J.) as previously described (23,78,79). At 80-90% confluence, macrophage/monocyte cultures will be stimulated with divergent stimuli: ultrapure and crude LPS, CIRP 14, SAA (PeproTech, Cat. No. 300-13) at different concentrations and for various time periods (0, 6, 12, and 18 h). The expression levels of Cx43 or Panx1 hemichannel proteins in macrophage/monocyte cultures are determined by Western blotting or immunocytochemistry techniques as previously described (21,23,80)."}, "Panx1 hemichannel": {"target": "Panx1 hemichannel (Homo sapiens, UniProt Q96RD7)", "sequence (Q96RD7 whole entry)": "as above", "conditions": "cited from earlier work"}, "[4]": {"tested_on": "Primary peritoneal macrophages", "assay": "LPS-induced NO production in primary peritoneal macrophages (Griess reaction)", "type": "cell-based, murine", "conditions": "crude LPS, 16 h"}, "[5]": {"tested_on": "macrophage hemichannel activities", "assay": "Lucifer Yellow uptake in LPS-stimulated macrophages", "type": "cell-based"}, "Cx43 hemichannel": {"target": "Cx43 hemichannel (Homo sapiens, UniProt P17302)", "sequence (P17302 whole entry)": "as the sequence (P17302 whole entry) above", "conditions": "ATP release or dye uptake; cited from earlier work"}, "[6]": {"conditions": "in vivo; cited from earlier work"}}, "note": "“Also recorded” adds a separate entry of the source.", "data": [{"compound": "P5: peptide ENVCYD (SEQ ID NO:1), Cx43 peptide antagonist from extracellular loop 1 (listed as Homo Sapiens)", "values": [{"measurement": "protection against hepatic I/R injury (serum ALT, AST)", "setting": "C57BL/6 mice", "value": "significant protection"}, {"measurement": "bacterial endotoxin-induced Lucifer Yellow dye uptake", "setting": "[1]", "value": "significantly inhibited"}]}, {"compound": "CC1(C)[C@@H](OC(=O)CCC(=O)O)CC[C@]2(C)[C@H]3C(=O)C=C4[C@@H]5C[C@@](C)(C(=O)O)CC[C@]5(C)CC[C@@]4(C)[C@]3(C)CC[C@@H]12", "note": "[CBX, carbenoxolone]", "values": [{"measurement": "concentrations of CBX used to abrogate LPS-induced HMGB1 secretion in macrophages", "setting": "[2]", "value": "5 to 10", "unit": "µM"}, {"measurement": "EC50", "setting": "Cx43 gap junctions", "value": "50 to 100", "unit": "µM"}, {"measurement": "EC50", "setting": "Panx1 hemichannels", "value": "1 to 4", "unit": "µM"}, {"measurement": "LPS-induced elevation of PKR expression and phosphorylation", "setting": "PKR", "value": "dose-dependently abrogated; also recorded: significantly attenuated"}, {"measurement": "LPS-induced HMGB1 secretion", "setting": "[3]", "value": "effectively suppressed; also recorded: dose-dependently abrogated; also recorded: remarkably inhibited"}, {"measurement": "Panx1 hemichannel-mediated ATP release", "setting": "Panx1 hemichannel; CBX 10 μM, hypoxia, sheer stress, low oxygen tension", "value": "effectively inhibited"}, {"measurement": "ATP release from apoptotic cells", "setting": "Panx1 hemichannel; CBX >100 μM", "value": "uniformly attenuated"}, {"measurement": "LPS (endotoxin)-induced NO production", "setting": "[4]", "value": "effectively suppressed; also recorded: remarkably inhibited"}, {"measurement": "number of LY-positive cells", "setting": "[5]; prolonged LPS stimulation, quiescent approximately 2%, LPS alone ~16%", "value": "6-8%"}]}, {"compound": "10Panx: Panx1-specific mimetic inhibitory peptide, residues 74 to 83 of SEQ ID NO:16 (WRQAAFVDSY; HOMO SAPIENS)", "values": [{"measurement": "P2X7R-induced Panx1 hemichannel activation", "setting": "Panx1 hemichannels", "value": "selectively attenuate"}]}, {"compound": "Gap19: mimetic peptide KQIEIKKFK (SEQ ID NO:19), intracellular loop of Cx43 (HOMO SAPIENS)", "values": [{"measurement": "Cx43 hemichannel activities", "setting": "Cx43 hemichannel", "value": "specifically inhibits"}, {"measurement": "Cx43 gap junction communication", "setting": "Cx43 gap junctions", "value": "without affecting"}, {"measurement": "Panx1 channel activity", "setting": "Panx1 hemichannels", "value": "without affecting"}]}, {"compound": "Nc1ncnc2c1ncn2[C@@H](C=O)O[C@@H](C=O)COP(=O)(O)OP(=O)(O)OP(=O)(O)O", "note": "[oATP]", "values": [{"measurement": "LPS-induced elevation of PKR expression and phosphorylation", "setting": "PKR", "value": "significantly attenuated"}, {"measurement": "LPS-induced HMGB1 secretion", "setting": "[3]", "value": "similarly inhibited"}, {"measurement": "LPS-induced LY-uptake", "setting": "[5]; data not shown", "value": "similarly inhibited"}]}, {"compound": "CCCN(CCC)S(=O)(=O)c1ccc(C(=O)O)cc1", "note": "[probenecid]", "values": [{"measurement": "specificity for Panx1 (over Cx43)", "setting": "Panx1 hemichannels", "value": "more specific inhibitor"}]}, {"compound": "CC1(C)[C@@H](O[C@H]2O[C@H](C(=O)O)[C@@H](O)[C@H](O)[C@H]2O[C@@H]2O[C@H](C(=O)O)[C@@H](O)[C@H](O)[C@H]2O)CC[C@]2(C)[C@H]3C(=O)C=C4[C@@H]5C[C@@](C)(C(=O)O)CC[C@]5(C)CC[C@@]4(C)[C@]3(C)CC[C@@H]12", "note": "[GZA, glycyrrhizic acid]", "values": [{"measurement": "benefit in animal models of hepatitis, hepatic ischemia/reperfusion, toxin-induced liver injury, endotoxemia, colitis", "setting": "[6]", "value": "proven beneficial"}]}]}
